Data on twelve compounds can be found in ChEMBL document CHEMBL1806384, “Identification of benzofuran-4,5-diones as novel and selective non-hydroxamic acid, non-peptidomimetic based inhibitors of human peptide deformylase” (Bioorg Med Chem Lett, 2011).

The inhibition is the change of the read-out against control, counted positive when it falls. For orientation: IC50 means the midpoint of a concentration-inhibition curve.

In test [1] the target is T1, Peptide deformylase, mitochondrial (Homo sapiens) (UniProt Q9HBH1).
T1 sequence (whole entry): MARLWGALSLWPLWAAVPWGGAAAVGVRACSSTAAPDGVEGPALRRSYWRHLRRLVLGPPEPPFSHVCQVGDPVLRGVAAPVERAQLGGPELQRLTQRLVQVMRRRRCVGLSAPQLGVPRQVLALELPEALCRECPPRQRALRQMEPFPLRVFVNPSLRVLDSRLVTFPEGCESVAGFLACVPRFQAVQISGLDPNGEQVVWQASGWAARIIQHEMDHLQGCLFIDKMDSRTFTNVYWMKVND
The experiment in a line: Inhibition of human peptide deformylase at 100 uM after 1 hr by fluorescence polarization based competition assay. For orientation: Fluorescence polarisation rises when a labelled molecule tumbles more slowly, as on binding a larger partner.

Test [2] addresses T2, Aminopeptidase N (Sus scrofa) (UniProt P15145).
T2 sequence (whole entry): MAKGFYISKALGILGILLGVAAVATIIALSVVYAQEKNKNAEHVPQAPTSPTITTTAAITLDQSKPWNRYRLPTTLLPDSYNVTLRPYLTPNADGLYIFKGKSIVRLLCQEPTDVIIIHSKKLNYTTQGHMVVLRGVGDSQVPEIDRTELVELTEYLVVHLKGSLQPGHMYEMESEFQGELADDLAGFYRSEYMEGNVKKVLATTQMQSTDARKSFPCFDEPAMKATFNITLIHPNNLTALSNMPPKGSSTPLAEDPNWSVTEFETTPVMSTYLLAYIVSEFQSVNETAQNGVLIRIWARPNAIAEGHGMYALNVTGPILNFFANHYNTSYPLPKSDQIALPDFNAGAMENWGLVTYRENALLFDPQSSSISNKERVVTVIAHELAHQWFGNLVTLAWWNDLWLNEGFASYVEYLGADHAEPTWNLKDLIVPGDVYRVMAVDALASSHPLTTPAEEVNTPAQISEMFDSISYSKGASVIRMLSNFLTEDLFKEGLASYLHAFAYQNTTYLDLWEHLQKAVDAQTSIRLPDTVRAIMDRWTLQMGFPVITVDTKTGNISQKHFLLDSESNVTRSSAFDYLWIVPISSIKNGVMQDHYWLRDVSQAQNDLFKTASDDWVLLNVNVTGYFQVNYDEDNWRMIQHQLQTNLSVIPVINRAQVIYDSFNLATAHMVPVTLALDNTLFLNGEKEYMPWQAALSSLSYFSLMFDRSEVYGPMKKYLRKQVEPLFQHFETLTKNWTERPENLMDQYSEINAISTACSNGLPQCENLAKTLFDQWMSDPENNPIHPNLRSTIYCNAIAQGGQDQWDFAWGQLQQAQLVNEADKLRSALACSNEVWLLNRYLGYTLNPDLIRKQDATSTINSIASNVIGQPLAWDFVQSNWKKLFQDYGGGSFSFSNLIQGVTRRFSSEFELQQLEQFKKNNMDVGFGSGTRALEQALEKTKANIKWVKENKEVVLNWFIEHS
The experiment in a line: Inhibition of porcine kidney microsomal aminopeptidase N at 100 uM after 1 hr by fluorescence polarization based competition assay.

Test [3] deals with HL-60. Nature of the test: Cytotoxicity against human vincristine-resistant HL60 cells. Format: functional, cell-based.
Another test deals with HEK293. Nature of the test: Cytotoxicity against human HEK293 cells. Format: cell-based.
Test [4] concerns the target T3, Peptide deformylase, mitochondrial (Homo sapiens, UniProt Q9HBH1).
T3 sequence (Q9HBH1 whole entry): T1 sequence (whole entry)
Nature of the test: Inhibition of human peptide deformylase after 1 hr by fluorescence polarization based competition assay.

Test [5] addresses T4, Interstitial collagenase (Homo sapiens) (UniProt P03956).
T4 sequence (whole entry): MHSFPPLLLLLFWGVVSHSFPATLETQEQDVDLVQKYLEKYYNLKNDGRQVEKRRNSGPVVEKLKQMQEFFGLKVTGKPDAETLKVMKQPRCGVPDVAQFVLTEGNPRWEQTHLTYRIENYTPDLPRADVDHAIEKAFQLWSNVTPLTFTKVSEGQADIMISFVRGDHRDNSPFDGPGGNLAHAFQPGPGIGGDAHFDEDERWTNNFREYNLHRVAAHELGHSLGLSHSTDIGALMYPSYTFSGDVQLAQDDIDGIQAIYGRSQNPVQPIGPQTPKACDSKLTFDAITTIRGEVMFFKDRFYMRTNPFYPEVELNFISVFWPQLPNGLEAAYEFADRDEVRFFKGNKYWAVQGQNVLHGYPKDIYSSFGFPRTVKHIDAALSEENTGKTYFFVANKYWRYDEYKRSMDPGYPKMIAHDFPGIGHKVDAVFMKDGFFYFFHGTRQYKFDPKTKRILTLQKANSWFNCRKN
Nature of the test: Inhibition of human recombinant MMP1 at 100 uM after 1 hr by fluorescence polarization based competition assay.

Test [6] has as its target T5, Peptide deformylase (Escherichia coli) (UniProt Q9JN24).
T5 sequence (whole entry): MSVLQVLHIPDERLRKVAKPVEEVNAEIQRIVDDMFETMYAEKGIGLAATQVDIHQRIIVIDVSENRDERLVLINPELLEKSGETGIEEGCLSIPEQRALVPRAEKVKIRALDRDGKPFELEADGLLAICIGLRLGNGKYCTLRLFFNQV
The experiment in a line: Inhibition of Escherichia coli peptide deformylase at 100 uM after 1 hr by fluorescence polarization based competition assay.

The nature of test [7]: Cytotoxicity against human ALL3 cells. Format: functional, cell-based.
In test [8] the test system is HL-60. The experiment in a line: Cytotoxicity against human HL60 cells. Format: functional, cell-based.
The next test deals with MOLT-3. Nature of the test: Cytotoxicity against human MOLT3 cells. Format: functional, cell-based.
The next test deals with T6, Peptide deformylase (Escherichia coli, UniProt Q9JN24).
T6 sequence (Q9JN24 whole entry): T5 sequence (whole entry)
Nature of the test: Inhibition of Escherichia coli peptide deformylase after 1 hr by fluorescence polarization based competition assay.

The next test concerns Jurkat. The experiment in a line: Cytotoxicity against human Jurkat cells. Format: functional, cell-based.
Test [9] in a line: Cytotoxicity against human CWR22 cells. Format: functional, cell-based.
A short description of test [10]: Cytotoxicity against human Meso47 cells. Format: functional, cell-based.
A further test relates to Y79. Nature of the test: Cytotoxicity against human Y79 cells. Format: functional, cell-based.

For `COc1ccc(C(=O)c2coc3c2C(=O)C(=O)C(Cl)=C3Cl)cc1OC`, the inhibition came out at 100% in test [1], 99% in [2], 46% in [5] and 63% in test [6]. The IC50 in the test with HL-60 [3] was 100 µM; in the test with HEK293, 100 µM; in [4], 6.1 µM.

Consider `COc1ccc(C(=O)c2coc3c2C(=O)C(=O)C(Cl)=C3)cc1`, for which the inhibition in test [1] was 100%; in test [2], 54%; in [5], 11%; in [6] it was 11%. Further, the half-inhibitory concentration (IC50) with HEK293 is 100 µM; in test [7], 34 µM; in the test on HL-60 [8], 32 µM; in the test with MOLT-3 it was 47 µM; at Peptide deformylase, over 100 µM; in the test on Jurkat it was 57 µM.

For the compound `COc1ccc(C(=O)c2coc3c2C(=O)C(=O)C(Br)=C3Br)cc1`, the inhibition in test [1] came to 100%; in [2], 41%; in [5], 23%; in test [6] it was 22%. The IC50 in the test with HL-60 [3] is 100 µM; in the test with HEK293, 100 µM; in test [7] it was 70 µM; with HL-60 [8], 53 µM; in test [9] it was 70 µM; in test [10] it was 100 µM. Besides, the IC50 with MOLT-3 is 40 µM; in [4] it was 65 µM; on Peptide deformylase, over 100 µM; with Jurkat it was 55 µM.

As to `O=C1C=Cc2occ(C(=O)c3ccccc3)c2C1=O`, the inhibition came to 100% in test [1], 5% in [2], 0% in test [5] and 32% in [6]. The IC50 was 22 µM in test [7]; 30 µM in [9]; 63 µM in test [10]; 7.3 µM with MOLT-3; over 100 µM at Peptide deformylase; 8.1 µM in the test on Jurkat.

As for `COc1cc(C(=O)c2coc3c2C(=O)C(=O)C(Cl)=C3Cl)cc(OC)c1OC`, the inhibition in test [1] amounted to 100%; in [2] it was 50%; in test [5], 32%; in [6], 27%. Also, the concentration for half-maximal inhibition (IC50) was 55 µM in the test on HL-60 [3]; 49 µM in test [7]; 36 µM with HL-60 [8]; 100 µM in test [10]; 7 µM in the test with MOLT-3; 25 µM in [4]. Moreover, the IC50 at Peptide deformylase was over 100 µM; with Jurkat it was 5.9 µM.

Turning to `COc1ccc(C(=O)c2coc3c(Cl)cc(O)c(Cl)c23)cc1`, the inhibition is 9% in test [1], 0% in test [2], 0% in test [5] and 0% in test [6]. Further, the IC50 (with HL-60 [3]; with HEK293; in [7]; in the test with HL-60 [8]; in test [9]; in test [10]) was 100 µM in each case. The IC50 with MOLT-3, with Jurkat and with Y79 was 100 µM each time.

As to `O=C(c1ccccc1)c1coc2ccc(O)cc12`, the inhibition is 11% in test [1], 10% in test [2], 0% in test [5] and 7% in [6]. In addition, the IC50 (in the test on HL-60 [3]; with HEK293; in [7]; in the test with HL-60 [8]; in test [9]; in test [10]) was 100 µM in each case. Further, the IC50 in the test with MOLT-3, in the test on Jurkat and in the test on Y79 was 100 µM each time.

Regarding `COc1ccc(C(=O)c2coc3c2C(=O)C(=O)C=C3)cc1`, the inhibition came to 100% in test [1], 4% in [2], 6% in test [5] and 24% in [6]. The IC50 in the test on HL-60 [3] stood at 27 µM; in the test on HEK293 it was 21 µM; in [7], 29 µM; in the test with HL-60 [8] it was 17 µM; in test [9], 35 µM; in test [10], 100 µM. Besides, the IC50 in the test with MOLT-3 is 9.1 µM; in test [4] it was 34 µM; at Peptide deformylase, over 100 µM; with Jurkat it was 8.9 µM; in the test on Y79 it was 31 µM.

As for `COc1ccc(C(=O)c2coc3c2C(=O)C(=O)C=C3Cl)cc1`, the inhibition in test [1] amounted to 100%; in test [2], 68%; in test [5], 10%; in test [6] it was 13%. Further, the IC50 in the test with HEK293 amounted to 40 µM; in test [7], 47 µM; in the test on HL-60 [8] it was 17 µM; in [9], 59 µM; in test [10] it was 100 µM; in the test with MOLT-3 it was 11 µM. The IC50 was 16 µM in test [4], over 100 µM on Peptide deformylase, 13 µM in the test with Jurkat and 74 µM with Y79.

For the compound `COc1ccc(C(=O)c2coc3c2C(=O)C(=O)C=C3Br)cc1`, the inhibition in test [1] stood at 100%; in [2] it was 64%; in test [5] it was 8%; in [6], 26%. The IC50 with HL-60 [3] worked out at 38 µM; in test [7], 35 µM; with HL-60 [8], 10 µM; in test [9], 46 µM; in test [10] it was 100 µM; in the test with MOLT-3, 11 µM. The concentration for half-maximal inhibition (IC50) in [4] was 15 µM; at Peptide deformylase it was over 100 µM; in the test with Jurkat it was 12 µM; in the test on Y79, 63 µM.

For `COc1ccc(C(=O)c2coc3c(Cl)c(Cl)c(O)cc23)cc1`, the inhibition turned out to be 13% in [1], 0% in [2], 14% in test [5] and 0% in test [6]. Further, the IC50 (with HL-60 [3]; with HEK293; in test [7]; in the test with HL-60 [8]; in [9]; in test [10]) was 100 µM each time. The IC50 in the test with MOLT-3, in the test with Jurkat and with Y79 was 100 µM in each case.

Regarding `COc1ccc(C(=O)c2coc3ccc(O)cc23)cc1`, the inhibition in test [1] was 0%; in [2], 4%; in test [5], 0%; in [6], 0%. Besides, the IC50 (with HL-60 [3]; in the test on HEK293; in [7]; with HL-60 [8]; in test [9]; in [10]) was 100 µM each time. The IC50 in the test on MOLT-3 was determined as 100 µM; in the test on Jurkat it was 33 µM; in the test with Y79, 100 µM.
